These results are taken from article PMC10820468, “Novel Dihydrocoumarins Induced by Radiolysis as Potent Tyrosinase Inhibitors” (Molecules, 2024).

The IC50 is the concentration that inhibits the measured activity by half. Read a low IC50 as greater potency. Broadly, the Ki is a dissociation constant, usually derived from enzyme kinetics or from competition with a known ligand. A low value points to tighter binding.

For assay [1], the target named is mushroom tyrosinase. Description: Mushroom tyrosinase inhibition assay (L-DOPA substrate, DOPA chrome at 470 nm). Particulars: 37 °C, 30 min, pH 6.8, triplicate. It counts as biochemical. As to the method: The tyrosinase inhibition assay was achieved according to a previously described method. Both the enzyme (tyrosinase, EC 1.14.18.1) and substrate (L-3,4-dihydroxyphenylalanine) (L-DOPA) were purchased from Sigma-Aldrich. All test compounds were first dissolved in 5% dimethyl sulfoxide (DMSO) (80 μL), and the tyrosinase inhibitory activity was evaluated at various concentrations (5 to 200 μM). The reaction mixture consisted of 40 μL of tyrosinase solution (125 unit/mL in 67 mM phosphate buffer, pH 6.8), 40 μL of L-DOPA (25 mM in 67 mM phosphate buffer, pH 6.8), and 80 μL of the test sample. After incubation at 37 °C for 30 min, the amount of released DOPA chrome was measured at 470 nm using an ELISA reader (Infinite F200, Tecan Austria GmBH, Grodig, Austria). The tyrosinase inhibition (%) was calculated, and the half-maximal inhibitory concentration (IC50) was evaluated using linear regression analysis of the inhibitory effects under the assay conditions. […] All assays were carried out in triplicate. Kinetic parameters were determined using the Lineweaver-Burk plots methods at increasing concentration of substrates and inhibitor. The data was calculated using Sigma-plot (SPCC Inc., Chicago, IL, USA).

Assay [2] relates to mushroom tyrosinase. Description: Inhibition kinetics of tyrosinase-mediated L-DOPA oxidation (Lineweaver-Burk plots). It is filed as biochemical. From the text: Tyrosinase is a metalloenzyme that plays a primary role in the production of melanin from tyrosine when the skin is exposed to UV rays. Tyrosinase-related protein-1 (TRP-1) and dopachrome tautomerase (TRP-2) result in the formation of melanin as eumelanin (which appears black and brown) and pheomelanin (which appears yellow and red). Tyrosinase is present in epidermal melanocytes as well as in the pigment epithelia of the retina, iris, and ciliary body of the eye, and is one of the chief enzymes responsible for skin pigmentation in mammals. Melanin production can be inhibited by suppressing tyrosinase activity, thereby preventing the induction of melasma, freckles, and senile […]. […] Radiocatalytic hydrogenated molecules 1–4 obtained in the present study were evaluated for their inhibitory capacities toward mushroom tyrosinase. […]
The tyrosinase inhibition assay was achieved according to a previously described method. […] All test compounds were first dissolved in 5% dimethyl sulfoxide (DMSO) (80 μL), and the tyrosinase inhibitory activity was evaluated at various concentrations (5 to 200 μM). […] After incubation at 37 °C for 30 min, the amount of released DOPA chrome was measured at 470 nm using an ELISA reader (Infinite F200, Tecan Austria GmBH, Grodig, Austria). […] The data was calculated using Sigma-plot (SPCC Inc., Chicago, IL, USA).

A value given as a limit tells only on which side of the number the result lay.

On to `C[C@]1(CO)c2ccc(O)cc2OC(=O)[C@H]1CO` (relative stereo) [Compound 2, Radiocoumarone B], for which the IC50 in assay [1] is 49 ± 1.3 µM. Still for that read-out and setting: the result for `O=C1Oc2cc(O)ccc2[C@@](CO)(CCO)[C@@H]1CO` (relative stereo) [Compound 3, Radiocoumarone C] reads 254.6 ± 2.1 µM. For `C[C@]1([C@@]2(C)c3ccc(O)cc3OC(=O)[C@H]2CO)c2ccc(O)cc2OC(=O)[C@H]1CO` (relative stereo) [Compound 4, Radiocoumarone D], the IC50 in assay [1] was determined as 19.8 ± 0.5 µM. In assay [2], the “Inhibition Type” value is “Non-competitive” and the Ki came out at 16 µM. `C[C@@]1(CO)CC(=O)Oc2cc(O)ccc21` (stereo in doubt) [Compound 1, Radiocoumarone A] had an IC50 in assay [1] of 143 ± 1.5 µM. Take `Cc1cc(=O)oc2cc(O)ccc12` [4-MUF (5), 4-methylumbelliferone, reference compound]: the half-maximal inhibitory concentration (IC50) in assay [1] is above 500 µM.
